From US20050261260A1, “Combination of a CDK inhibitor and mitoxantrone” (Cyclacel Limited, priority 2002, published 2005)
Values after ≈ are worked out from the molar mass of the structure shown. Values joined by “and” are separate entries in the source; they are usually repeats but may differ in a detail not shown here. Equal entries are not always repeated. Where two headings read alike, the source gives them in different places.

Tests used:
[1] = system: prostate tumor cells (PC-3)
[2] = system: prostate tumor cells (PC-3); experiment: cells; conditions: Homo sapiens, 24 h, read-out: IC50 (concentration listed as 100 % IC50), PC-3
[3] = mitoxantrone 24 h then roscovitine 24 h, % IC50 100/0: roscovitine 30.00 ug/ml, mitox. 0
[4] = concurrent 24 h exposure, % IC50 0/100: roscovitine 0, mitox. 12.50 ng/ml
[5] = mitoxantrone 24 h then roscovitine 24 h, % IC50 0/100: roscovitine 0, mitox. 15.00 ng/ml
[6] = roscovitine 24 h then mitoxantrone 24 h, % IC50 0/100: roscovitine 0, mitox. 10.00 ng/ml

Row | SMILES | % Abs [1, 3] [%] | % Response [1, 3] [%] | Mean (absorbance) [1, 3] | Well 1-3 (absorbance) [1, 3] | % Abs [1, 4] | % Response [1, 4] [%] | Mean (absorbance) [1, 4] | Well 1-3 (absorbance) [1, 4] | % Abs [1, 5] [%] | % Response [1, 5] [%] | Mean (absorbance) [1, 5] | Well 1-3 (absorbance) [1, 5] | % Abs [1, 6] [%] | % Response [1, 6] [%] | Mean (absorbance) [1, 6] | Well 1-3 (absorbance) [1, 6] | IC50 ([2]; Table 3, roscovitine 24 h then mitoxantrone 24 h) [µg/mL] | IC50 ([2]; Table 5, mitoxantrone 24 h then roscovitine 24 h) [µg/mL] | IC50 ([2]; Table 7, concurrent 24 h exposure) [µg/mL]
1 | CC[C@H](CO)Nc1nc(NCc2ccccc2)c2ncn(C(C)C)c2n1 [Roscovitine, 6-benzylamino-2-[(R)-1-ethyl-2-hydroxyethylamino]-9-isopropylpurine] | 21.9 | 78.1 | 0.171 | 0.165 and 0.162 and 0.186 |  |  |  |  |  |  |  |  |  |  |  |  |  |  | 
2 | O=C1c2c(O)ccc(O)c2C(=O)c2c(NCCNCCO)ccc(NCCNCCO)c21 [Mitoxantrone, 1,4-dihydroxy-5,8-bis[{2-[(2-hydroxyethyl)amino]ethyl}amino]-9,10-anthracendione] |  |  |  |  | 51.8% and 54.7% | 45.3 | 0.418 | 0.415 and 0.424 and 0.414 | 47.0 | 53.0 | 0.367 | 0.373 and 0.371 and 0.358 | 62.7 | 37.3 | 0.501 | 0.532 and 0.487 and 0.483 | 0.01 (≈ 0.0225 µM) | 0.015 (≈ 0.0337 µM) | 0.0125 (≈ 0.0281 µM)
